In the first assay the target is T1, human Fatty Acid Synthase (Homo sapiens, UniProt P49327).
T1 construct: made in house
T1 sequence (P49327 whole entry): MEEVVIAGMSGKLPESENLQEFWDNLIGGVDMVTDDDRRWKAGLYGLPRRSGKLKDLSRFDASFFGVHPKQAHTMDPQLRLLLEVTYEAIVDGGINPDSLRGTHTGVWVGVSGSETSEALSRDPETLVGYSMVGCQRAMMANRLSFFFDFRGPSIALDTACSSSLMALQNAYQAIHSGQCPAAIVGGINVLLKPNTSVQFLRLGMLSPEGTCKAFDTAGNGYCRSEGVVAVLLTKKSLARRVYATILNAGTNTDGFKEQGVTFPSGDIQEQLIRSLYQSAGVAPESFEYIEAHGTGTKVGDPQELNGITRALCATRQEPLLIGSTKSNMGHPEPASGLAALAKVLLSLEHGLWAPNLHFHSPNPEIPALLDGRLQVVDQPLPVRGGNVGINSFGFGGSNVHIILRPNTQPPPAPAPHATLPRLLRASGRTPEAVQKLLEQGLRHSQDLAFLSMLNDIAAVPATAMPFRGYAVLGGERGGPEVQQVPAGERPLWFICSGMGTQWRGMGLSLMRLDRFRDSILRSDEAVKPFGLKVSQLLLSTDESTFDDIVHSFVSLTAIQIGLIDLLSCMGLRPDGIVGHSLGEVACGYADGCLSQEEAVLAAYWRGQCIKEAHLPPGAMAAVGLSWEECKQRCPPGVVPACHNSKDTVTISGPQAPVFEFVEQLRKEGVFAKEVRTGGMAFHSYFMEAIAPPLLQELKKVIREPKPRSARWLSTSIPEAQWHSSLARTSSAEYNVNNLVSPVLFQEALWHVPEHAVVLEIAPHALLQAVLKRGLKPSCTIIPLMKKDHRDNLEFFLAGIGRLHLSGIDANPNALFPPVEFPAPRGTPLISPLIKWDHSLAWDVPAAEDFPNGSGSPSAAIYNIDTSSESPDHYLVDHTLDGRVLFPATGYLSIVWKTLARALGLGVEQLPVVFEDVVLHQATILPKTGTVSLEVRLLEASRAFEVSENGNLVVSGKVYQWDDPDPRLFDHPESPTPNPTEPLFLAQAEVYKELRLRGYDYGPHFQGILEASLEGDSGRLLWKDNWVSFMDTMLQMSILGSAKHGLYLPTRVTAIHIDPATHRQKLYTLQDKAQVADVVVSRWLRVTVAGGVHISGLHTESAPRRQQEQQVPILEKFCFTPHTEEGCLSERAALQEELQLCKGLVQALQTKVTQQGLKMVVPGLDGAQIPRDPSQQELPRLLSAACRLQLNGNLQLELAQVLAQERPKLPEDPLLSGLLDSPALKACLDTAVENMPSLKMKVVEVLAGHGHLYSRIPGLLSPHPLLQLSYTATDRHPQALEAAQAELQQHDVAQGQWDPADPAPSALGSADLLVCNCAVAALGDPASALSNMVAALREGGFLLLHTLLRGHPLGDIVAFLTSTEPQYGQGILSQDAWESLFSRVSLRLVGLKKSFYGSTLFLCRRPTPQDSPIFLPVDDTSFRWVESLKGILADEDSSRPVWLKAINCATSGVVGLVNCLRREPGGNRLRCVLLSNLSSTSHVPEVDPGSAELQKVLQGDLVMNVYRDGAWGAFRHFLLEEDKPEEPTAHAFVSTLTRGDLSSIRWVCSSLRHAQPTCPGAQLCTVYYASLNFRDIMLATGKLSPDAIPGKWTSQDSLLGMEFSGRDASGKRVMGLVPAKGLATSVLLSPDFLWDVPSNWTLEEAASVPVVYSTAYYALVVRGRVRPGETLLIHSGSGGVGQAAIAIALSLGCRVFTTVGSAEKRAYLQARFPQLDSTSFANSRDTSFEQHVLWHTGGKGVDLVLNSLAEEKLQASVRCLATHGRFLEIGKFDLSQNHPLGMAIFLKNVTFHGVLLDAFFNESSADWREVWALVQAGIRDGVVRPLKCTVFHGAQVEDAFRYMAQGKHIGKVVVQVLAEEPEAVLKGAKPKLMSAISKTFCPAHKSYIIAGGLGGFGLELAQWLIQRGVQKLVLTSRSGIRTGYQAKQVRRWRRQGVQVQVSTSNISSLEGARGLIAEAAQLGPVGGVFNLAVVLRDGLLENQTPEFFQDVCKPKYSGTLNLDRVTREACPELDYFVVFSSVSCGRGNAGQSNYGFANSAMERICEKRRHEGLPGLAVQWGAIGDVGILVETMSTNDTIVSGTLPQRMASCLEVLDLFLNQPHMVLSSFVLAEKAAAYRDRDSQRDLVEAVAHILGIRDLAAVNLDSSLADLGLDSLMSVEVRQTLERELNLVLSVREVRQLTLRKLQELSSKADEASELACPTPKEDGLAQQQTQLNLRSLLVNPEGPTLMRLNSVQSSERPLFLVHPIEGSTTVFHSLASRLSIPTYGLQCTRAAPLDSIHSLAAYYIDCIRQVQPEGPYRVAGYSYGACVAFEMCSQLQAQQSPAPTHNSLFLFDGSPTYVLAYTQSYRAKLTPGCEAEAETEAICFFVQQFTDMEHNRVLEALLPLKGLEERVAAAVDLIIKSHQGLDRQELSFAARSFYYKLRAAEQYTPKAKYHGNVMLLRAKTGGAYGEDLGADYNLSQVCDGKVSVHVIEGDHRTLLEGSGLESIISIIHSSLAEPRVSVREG
The assay can be described thus: Human FAS enzyme assay (decrease in NADPH fluorescence). The conditions noted are these: % inhibition at a concentration of 100 micromolar. The class given is biochemical. The essentials: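 In-house human FAS (0.4 μg) was preincubated 15 min at RT with compound and NADPH (added at 166.6 μM) in 0.1 M Tris pH 7.5, 1 mM glutathione, 0.05% BSA. Malonyl-/acetyl-CoA (500/150 μM in substrate mix) was then added for 60 min. Readout was NADPH fluorescence loss (ex 340/em 460) over a time-zero read, with IC50 from a sigmoid fit.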
For `CC(=O)Nc1ccc(S(=O)(=O)Nc2ccc(C)c(C(=O)N3CCC(c4ccc(C#N)cc4)CC3)c2)cc1` [Example 48, N-[4-[[3-[4-(4-cyanophenyl)piperidine-1-carbonyl]-4-methyl-phenyl]sulfamoyl]phenyl]acetamide], the inhibition (usually the change of the read-out against control, counted positive when it falls) at 100 µM was 84%.

Regarding `Cc1ccc(C2CCN(C(=O)c3ccc(C)c(NS(C)(=O)=O)c3)CC2)cc1` [Example 158, N-[2-methyl-5-[4-(4-methylphenyl)piperidine-1-carbonyl]phenyl]methanesulfonamide], the inhibition at 100 µM is 81%.

Consider `CCS(=O)(=O)Nc1cc(C(=O)N2CCC(c3ccc(C#N)cc3)CC2)ccc1C` [Example 11, N-[5-[4-(4-cyanophenyl)piperidine-1-carbonyl]-2-methyl-phenyl]ethanesulfonamide], for which the inhibition at 100 µM turned out to be 88%.

Turning to `CCn1ncc(S(=O)(=O)Nc2cc(C(=O)N3CCC(c4ccc(C#N)cc4)CC3)ccc2C)c1C` [Example 142, N-[5-[4-(4-cyanophenyl)piperidine-1-carbonyl]-2-methyl-phenyl]-1-ethyl-5-methyl-pyrazole-4-sulfonamide], the inhibition at 100 µM was found to be 98%.

`Cc1ccc(C(=O)N2CCC(c3ccc(C#N)cc3)CC2)cc1NS(=O)(=O)CCCN1C(=O)c2ccccc2C1=O` [Example 134, N-[5-[4-(4-cyanophenyl)piperidine-1-carbonyl]-2-methyl-phenyl]-3-(1,3-dioxoisoindol-2-yl)propane-1-sulfonamide]: the inhibition at 100 µM was 97%.

Take `CNC(=O)NCc1ccc(C2CCN(C(=O)c3ccc(C)c(NS(C)(=O)=O)c3)CC2)cc1` [Example 233, 1-[[4-[1-(3-methanesulfonamido-4-methylbenzoyl)piperidin-4-yl]phenyl]methyl]-3-methylurea]: the inhibition at 100 µM was 81.8%.

Regarding `Cc1ccc(NS(=O)(=O)C2CCCCC2)cc1C(=O)N1CCC(c2ccc(C#N)cc2)CC1` [Example 42, N-[3-[4-(4-cyanophenyl)piperidine-1-carbonyl]-4-methyl-phenyl]cyclohexanesulfonamide], the inhibition at 100 µM is 90%.

Take `Cc1ccc(C(=O)N2CCC(c3ccc(C#N)cc3)CC2)cc1NS(=O)(=O)C1CCNCC1` [Example 115, N-[5-[4-(4-cyanophenyl)piperidine-1-carbonyl]-2-methyl-phenyl]piperidine-4-sulfonamide]: the inhibition at 100 µM was 97%.

For the molecule `Cc1ccc(NS(=O)(=O)CCc2ccccc2)cc1C(=O)N1CCC(c2ccc(C#N)cc2)CC1` [Example 58, N-[3-[4-(4-cyanophenyl)piperidine-1-carbonyl]-4-methyl-phenyl]-2-phenyl-ethanesulfonamide], the inhibition at 100 µM was 92%.

As to `Cc1ccc(C(=O)N2CCC(c3ccc(CNS(=O)(=O)N(C)C)cc3)CC2)cc1NS(C)(=O)=O` [Example 242, N-[5-[4-[4-[(dimethylsulfamoylamino)methyl]phenyl]piperidine-1-carbonyl]-2-methylphenyl]methanesulfonamide], the inhibition at 100 µM worked out at 95.7%.

With `Cc1ccc(C(=O)N2CCC(c3ccc(Oc4nccc(C(F)(F)F)n4)cc3)CC2)cc1NS(C)(=O)=O` [Example 189, N-[2-methyl-5-[4-[4-[4-(trifluoromethyl)pyrimidin-2-yl]oxyphenyl]piperidine-1-carbonyl]phenyl]methanesulfonamide], the inhibition at 100 µM worked out at 88%.

As for `COCCS(=O)(=O)Nc1cc(C(=O)N2CCC(c3ccc(C#N)cc3)CC2)ccc1C` [Example 105, N-[5-[4-(4-cyanophenyl)piperidine-1-carbonyl]-2-methyl-phenyl]-2-methoxy-ethanesulfonamide], the inhibition at 100 µM was 89%.

In the case of `Cc1ccc(C(=O)N2CCC(c3ccc(C#N)cc3)CC2)cc1NS(=O)(=O)c1ccccc1C(=O)N1CCOCC1` [Example 111, N-[5-[4-(4-cyanophenyl)piperidine-1-carbonyl]-2-methyl-phenyl]-2-(morpholine-4-carbonyl)benzenesulfonamide], the inhibition at 100 µM came out at 80%.

In the case of `Cc1ccc(C(=O)N2CCC(c3ccc(C#N)cc3)CC2)cc1NS(=O)(=O)CC(=O)NCCO` [Example 92, 2-[[5-[4-(4-cyanophenyl)piperidine-1-carbonyl]-2-methyl-phenyl]sulfamoyl]-N-(2-hydroxyethyl)acetamide], the inhibition at 100 µM was determined as 80%.

In the case of `Cc1ccc(NS(=O)(=O)CCCCl)cc1C(=O)N1CCC(c2ccc(C#N)cc2)CC1` [Example 34, 3-chloro-N-[3-[4-(4-cyanophenyl)piperidine-1-carbonyl]-4-methyl-phenyl]propane-1-sulfonamide], the inhibition at 100 µM amounted to 89%.

`Cc1ccc(C(=O)N2CCC(c3ccc(C#N)cc3)CC2)cc1NS(=O)(=O)Cc1ccccc1` [Example 4, N-[5-[4-(4-cyanophenyl)piperidine-1-carbonyl]-2-methyl-phenyl]-1-phenyl-methanesulfonamide]: the inhibition at 100 µM stood at 81%.

Turning to `Cc1ccc(C(=O)N2CCC(c3ccc(C#N)cc3)CC2)cc1NS(=O)(=O)C(C)CO` (centres unmarked) [Example 138, N-[5-[4-(4-cyanophenyl)piperidine-1-carbonyl]-2-methyl-phenyl]-1-hydroxy-propane-2-sulfonamide], the inhibition at 100 µM turned out to be 100%.

Regarding `Cc1ccc(C(=O)N2CCC(c3ccc(C#N)cc3)CC2)cc1NS(=O)(=O)C1CCCCC1` [Example 17, N-[5-[4-(4-cyanophenyl)piperidine-1-carbonyl]-2-methyl-phenyl]cyclohexanesulfonamide], the inhibition at 100 µM worked out at 94%.

With `CCC1(CS(=O)(=O)Nc2cc(C(=O)N3CCC(c4ccc(C#N)cc4)CC3)ccc2C)NC(=O)NC1=O` (centres unmarked) [Example 148, N-[5-[4-(4-cyanophenyl)piperidine-1-carbonyl]-2-methyl-phenyl]-1-(4-ethyl-2,5-dioxo-imidazolidin-4-yl)methanesulfonamide], the inhibition at 100 µM is 100%.

Consider `Cc1ccc(C(=O)N2CCC(c3ccc(C(=O)c4nccs4)cc3)CC2)cc1NS(C)(=O)=O` [Example 188, N-[2-methyl-5-[4-[4-(1,3-thiazole-2-carbonyl)phenyl]piperidine-1-carbonyl]phenyl]methanesulfonamide], for which the inhibition at 100 µM was found to be 110%.

For `Cc1ccc(C(=O)N2CCC(c3ccc(C#N)cc3)CC2)cc1NS(=O)(=O)c1c(C)nn(C)c1C` [Example 152, N-[5-[4-(4-cyanophenyl)piperidine-1-carbonyl]-2-methyl-phenyl]-1,3,5-trimethyl-pyrazole-4-sulfonamide], the inhibition at 100 µM was determined as 87%.

In the case of `Cc1ccc(C(=O)N2CCC(c3ccc(C#N)cc3)CC2)cc1NS(=O)(=O)c1cn(C)nc1C` [Example 139, N-[5-[4-(4-cyanophenyl)piperidine-1-carbonyl]-2-methyl-phenyl]-1,3-dimethyl-pyrazole-4-sulfonamide], the inhibition at 100 µM was 83%.

Take `Cc1ccc(C(=O)N2CCC(c3ccc(S(C)(=O)=O)cc3)CC2)cc1NS(C)(=O)=O` [Example 68, N-[2-methyl-5-[4-(4-methylsulfonylphenyl)piperidine-1-carbonyl]phenyl]methanesulfonamide]: the inhibition at 100 µM is 74%.

`Cc1ccc(C(=O)N2CCC(c3ccc(C#N)cc3)CC2)cc1NS(=O)(=O)CCNS(=O)(=O)C(C)C` [Example 80, N-[2-[[5-[4-(4-cyanophenyl)piperidine-1-carbonyl]-2-methyl-phenyl]sulfamoyl]ethyl]propane-2-sulfonamide]: the inhibition at 100 µM is 90%.

Turning to `Cc1ccc(C(=O)N2CCC(c3ccc(C#N)cc3)CC2)cc1NS(=O)(=O)C(F)(F)F` [Example 209, N-[5-[4-(4-cyanophenyl)piperidine-1-carbonyl]-2-methylphenyl]-1,1,1-trifluoromethane-sulfonamide], the inhibition at 100 µM came to 76%.

Turning to `Cc1ccc(C(=O)N2CCC(c3ccc(C#N)cc3)CC2)cc1NS(=O)(=O)Cc1ccccc1F` [Example 26, N-[5-[4-(4-cyanophenyl)piperidine-1-carbonyl]-2-methyl-phenyl]-1-(2-fluorophenyl)methanesulfonamide], the inhibition at 100 µM turned out to be 94%.

In the case of `Cc1ccc(C(=O)N2CCC(c3ccc(C#N)cc3)CC2)cc1NS(=O)(=O)C1CCS(=O)(=O)C1` (centres unmarked) [Example 127, N-[5-[4-(4-cyanophenyl)piperidine-1-carbonyl]-2-methyl-phenyl]-1,1-dioxo-thiolane-3-sulfonamide], the inhibition at 100 µM was determined as 92%.

With `Cc1ccc(C(=O)N2CCC(c3ccc(C#N)c(Cl)c3)CC2)cc1NS(C)(=O)=O` [Example 218, N-[5-[4-(3-chloro-4-cyanophenyl)piperidine-1-carbonyl]-2-methylphenyl]methane-sulfonamide], the inhibition at 100 µM was found to be 67%.

`Cc1ccc(NS(=O)(=O)Cc2ccccc2F)cc1C(=O)N1CCC(c2ccc(C#N)cc2)CC1` [Example 51, N-[3-[4-(4-cyanophenyl)piperidine-1-carbonyl]-4-methyl-phenyl]-1-(2-fluorophenyl)methanesulfonamide]: the inhibition at 100 µM stood at 94%.

As to `N#Cc1ccc(C2CCN(C(=O)c3ccc(Cl)c(NS(=O)(=O)c4ccccc4F)c3)CC2)cc1` [Example 191, N-[2-chloro-5-[4-(4-cyanophenyl)piperidine-1-carbonyl]phenyl]-2-fluorobenzenesulfonamide], the inhibition at 100 µM is 63%.

The assay is the same for the next values; noted with them: compounds excluded from the claims by proviso.
For `N#Cc1ccc(C2CCN(C(=O)c3ccc(OC(F)(F)F)c(NS(=O)(=O)Cc4ccccc4)c3)CC2)cc1` [N-[5-[4-(4-cyanophenyl)piperidine-1-carbonyl]-2-(trifluoromethoxy)phenyl]-1-phenylmethanesulfonamide], the “IC50s in the range of about 0.001 μM to about 30 μM” value was “do not have IC50s in the range of about 0.001 μM to about 30 μM”.

For the molecule `Cc1ccc(C(=O)N2CCC(c3cccc(Br)c3)CC2)cc1NS(C)(=O)=O` [N-[5-[4-(3-bromophenyl)piperidine-1-carbonyl]-2-methylphenyl]methanesulfonamide], the “IC50s in the range of about 0.001 μM to about 30 μM” value is on record as “do not have IC50s in the range of about 0.001 μM to about 30 μM”.

The record behind these values is patent publication US20090105305A1, “Therapeutic Agents - 550” (AstraZeneca AB, priority 2006, published 2009).
